Measured values as given in the METLIN SMRT retention time set (Domingo-Almenara et al. 2019).

Assay: gradient 5% acetonitrile 3 min, to 50% in 2 min, to 85% in 15 min, held 3 min, 100 µL/min
Conditions: column: Zorbax Extend-C18 2.1 x 50 mm; eluents: water / acetonitrile, 0.1% formic acid
Outline: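 Retention times come from adduct peaks that were picked computationally and then checked by hand. The standards, pure and pooled in mixtures of ~100 molecules, were run on a Zorbax Extend-C18 column (2.1 × 50 mm, 1.8 μm) at 100 μL/min with water and acetonitrile, each with 0.1% formic acid. Detection was by quadrupole time-of-flight mass spectrometry in positive and negative ionization mode, with a dead volume of 40 μL and a dwell volume of 900 μL.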

Which RP-LC retention time does the source give for `Cc1cc(=O)c(OCc2ccccc2F)cn1CC(=O)NCc1ccccc1Cl` here?
The RP-LC retention time was 632 s.

With `CCOc1ccc(-n2c(=O)c3sccc3n(Cc3nc(-c4cccc(C)c4)no3)c2=O)cc1` as the compound, how does the RP-LC retention time read?
The RP-LC retention time was 1100 s.

For `COc1ccc(NC(=O)N2[C@H]3CC[C@@H]2c2cncnc2C3)cc1OC`, which RP-LC retention time is on record?
Its RP-LC retention time is 839 s.

For `CCn1c(=O)c(N2CCC(C(=O)NCCCN3CCCC3=O)CC2)nc2ccccc21`, which RP-LC retention time is on record?
Its RP-LC retention time is 643 s.

With `CC(C)CC(=O)Nc1ccc(-c2nc(-c3ccc(Cl)cc3)no2)cc1` as the compound, how does the RP-LC retention time read?
The RP-LC retention time was 1310 s.

Which RP-LC retention time does the source give for `Cc1cccc(-c2nc(Cn3nnc(-c4nc(-c5ccc6c(c5)OCO6)no4)c3C)c(C)o2)c1` here?
The RP-LC retention time was 1240 s.

With `COc1ccc(C2Cn3cnc(-c4nc(-c5ccc6c(c5)OCO6)no4)c3CO2)cc1` (configuration not stated) as the compound, how does the RP-LC retention time read?
The RP-LC retention time was 1000 s.

With `Cc1cc(C)n(CCNC(=O)C(=O)Nc2ccc(Cl)cn2)n1` as the compound, how does the RP-LC retention time read?
The RP-LC retention time was 692 s.

With `O=C(c1ccc2c(=O)n(Cc3ccccc3)c(N3CCCC3)nc2c1)N1CCN(c2ccccn2)CC1` as the compound, how does the RP-LC retention time read?
Its RP-LC retention time is 655 s.

For `Cc1nc(-c2ccc3c(c2)n(CC(=O)NC2CCCCCC2)c(=O)n3C(C)C)no1`, which RP-LC retention time is on record?
The RP-LC retention time was 841 s.

For `O=C(Cc1csc2nc(-c3ccccc3)cn12)NCc1ccc(Br)cc1`, which RP-LC retention time is on record?
Its RP-LC retention time is 815 s.

For `Cc1nnc(-c2ccc3ccn(CC(=O)NCCc4ccc(Cl)cc4)c3c2)o1`, which RP-LC retention time is on record?
Its RP-LC retention time is 824 s.

Which RP-LC retention time does the source give for `Cc1cccc(S(=O)(=O)N2CCC(c3cc(N)on3)CC2)c1` here?
Its RP-LC retention time is 615 s.

For `O=C(NCc1ccccn1)c1c[nH]c2ncccc12`, which RP-LC retention time is on record?
The RP-LC retention time was 549 s.

With `CCN1C(=O)c2cccnc2Sc2cc(C(=O)NCc3ccccc3)ccc21` as the compound, how does the RP-LC retention time read?
The RP-LC retention time was 780 s.

With `Cc1nnc(NC(=O)Cc2csc(Nc3ccc(OC(F)(F)F)cc3)n2)s1` as the compound, how does the RP-LC retention time read?
Its RP-LC retention time is 790 s.

For `Cc1oc(-c2ccc(C(=O)NCCCN3CCN(C)CC3)cc2)nc1CS(=O)c1ccccc1` (configuration not stated), which RP-LC retention time is on record?
The RP-LC retention time was 581 s.

With `Cc1cc(C)cc(-c2nnc(Cc3nc(-c4ccc5c(c4)OCO5)no3)o2)c1` as the compound, how does the RP-LC retention time read?
The RP-LC retention time was 1070 s.

With `CC(C)CCNC(=O)N1CCN(c2cc(-c3ccccc3)ncn2)CC1` as the compound, how does the RP-LC retention time read?
Its RP-LC retention time is 658 s.

Which RP-LC retention time does the source give for `O=S(=O)(Nc1ccc(F)cc1)c1cccnc1N1CCOCC1` here?
The RP-LC retention time was 801 s.

For `CC(=O)N1CCC2(CC1)CC(CCO)CCO2` (configuration not stated), which RP-LC retention time is on record?
The RP-LC retention time was 575 s.

For `CCS(=O)(=O)c1nc2ccc(NS(=O)(=O)c3ccc4c(c3)oc(=O)n4C)cc2s1`, which RP-LC retention time is on record?
Its RP-LC retention time is 805 s.

Which RP-LC retention time does the source give for `CCn1cc(-c2nc(C(=O)Nc3ccc(F)cc3Cl)cs2)c2cccnc21` here?
The RP-LC retention time was 1350 s.

With `COc1ccc(C(=O)N2CCC(Oc3cc(N(C)C)ncn3)C2)cc1` (configuration not stated) as the compound, how does the RP-LC retention time read?
Its RP-LC retention time is 650 s.

With `COc1cccc2cc(C(=O)N(CCc3cccs3)Cc3cccnc3)oc12` as the compound, how does the RP-LC retention time read?
Its RP-LC retention time is 671 s.

Which RP-LC retention time does the source give for `CC(C)CNC(=O)c1c2c(nc3ccccc13)CCCC2` here?
Its RP-LC retention time is 639 s.

For `CNC(=O)N1CCCC(c2nc(C(C)C)no2)CCNC(=O)CC1` (configuration not stated), which RP-LC retention time is on record?
The RP-LC retention time was 606 s.

For `c1ccc(-c2nc3nc4c(c(N5CCN(C6CCCCC6)CC5)n3n2)CCCC4)cc1`, which RP-LC retention time is on record?
The RP-LC retention time was 668 s.

Which RP-LC retention time does the source give for `COc1ccc(C2C(C(=O)NCc3ccco3)c3ccccc3C(=O)N2C)cc1` (configuration not stated) here?
The RP-LC retention time was 776 s.

Which RP-LC retention time does the source give for `O=C(c1cccs1)N1CCN(c2[nH]ncc2-c2ccccc2)CC1` here?
The RP-LC retention time was 808 s.

Which RP-LC retention time does the source give for `COC(=O)c1c(NC(C)c2ccccc2)c2cccc(Cl)c2[nH]c1=O` (configuration not stated) here?
Its RP-LC retention time is 864 s.

For `CCc1noc(-c2nc(-c3ccc(OC)c(OC)c3)no2)n1`, which RP-LC retention time is on record?
Its RP-LC retention time is 976 s.

For `NS(=O)(=O)c1ccc(CCNCc2ccc(-c3cc(Cl)cc(Cl)c3)o2)cc1`, which RP-LC retention time is on record?
The RP-LC retention time was 800 s.

Which RP-LC retention time does the source give for `Cc1nc2c(c(=O)n1CC(=O)NCc1ccccc1Br)CCN(Cc1ccccc1)C2` here?
The RP-LC retention time was 650 s.

With `CCSc1nc2ccc(NS(=O)(=O)c3cc(C)cc(C)c3)cc2s1` as the compound, how does the RP-LC retention time read?
Its RP-LC retention time is 1120 s.

With `CNC(=O)N1CC(C)Oc2ccc(Cl)cc21` (configuration not stated) as the compound, how does the RP-LC retention time read?
The RP-LC retention time was 806 s.

For `O=C(CCc1conc1-c1ccc(F)cc1)NC1CCCCC1`, which RP-LC retention time is on record?
Its RP-LC retention time is 927 s.
